# Oligonucleotides are written 5' to 3', each unit as a sugar letter and its base; * is a phosphorothioate linkage, no mark a phosphodiester; rarer units and linkages stand in square brackets, end groups in braces. Plain capitals give the bases only. e = 2'-O-(2-methoxyethyl) (MOE); l = locked nucleic acid (LNA); [5mC] = 5-methylcytosine
# Tested on: mGrn mRNA
# Assay: mGrn mRNA qPCR in Neuro2a cells transfected with ASOs
# Format: cell-based, mouse
# Details: for mGRN mRNA FC: Table 14, 100 nM, 48 hours, normalized to sNTC3; for 40 nM FC (mGrn mRNA) / 80 nM FC (mGrn mRNA) / 160 nM FC (mGrn mRNA): transfection
# Experimental: 57 ASOs targeting the Grn promoter (− strand) were screened in Neuro2a cells. Neuro2a cells were transfected with 100 nM of each of the ASOs listed in Table 14 and cells were harvested 48 hours later for Grn mRNA quantification using qPCR. Housekeeping genes for normalization were Gapdh and Ppia. Relative Grn mRNA levels were normalized to mRNA extracted from cells treated with sNTC3 (steric nontargeting control).
# Next, 26 ASOs based on parent ASOs CO-3544 and CO-3595 were designed with different modifications and base walking. Neuro2a cells were transfected with either […] or 160 nM of each of the ASOs listed in Table 15, and cells were harvested 48 hours later for mGrn mRNA quantification using qPCR. As controls, cells were treated with sNTC3 or no ASO. Housekeeping genes for normalization were Gapdh and Ppia. Relative Grn mRNA levels were normalized to mRNA extracted from cells treated with sNTC3.
# CO-3544 was modified to include PO/PS bonds and the efficacy in upregulating mGrn mRNA was determined.
# Similarly, CO-3595 was modified to include varying PO/PS internucleotide bonds and the efficacy of these ASOs in upregulating mGrn mRNA was determined in Neuro2A cells.
substance,measurement,setting,value
CO-3550: ASO targeting the Grn promoter (− strand) (antisense eG*eG*eT*eT*eG*eT*eG*eT*e[5mC]*eA*eG*e[5mC]*eT*eT*eT*eA*eT*eT*eT*e[5mC]),mGRN mRNA FC,Neuro2a,0.9 FC
CO-5297: CO-3544 modified to include PO/PS bonds (antisense eG*eT*eTe[5mC]eTe[5mC]e[5mC]e[5mC]eTeAeGe[5mC]eTeG*eT*eG*eT*eA*eG*eT),40 nM FC (mGrn mRNA),"Table 15, Neuro2a",1.0 FC
same,80 nM FC (mGrn mRNA),"Table 15, Neuro2a",1.1 FC
same,160 nM FC (mGrn mRNA),"Table 15, Neuro2a",1.2 FC
CO-5314: CO-3595 modified to include varying PO/PS internucleotide bonds (antisense l[5mC]*l[5mC]*eT*lG*lA*eA*l[5mC]*eT*lG*eT*lA*eT*lG*eG*l[5mC]*eT*lG*eA*l[5mC]*l[5mC]),40 nM FC (mGrn mRNA),"Table 16, Neuro2A",1.5 FC
same,80 nM FC (mGrn mRNA),"Table 16, Neuro2A",1.7 FC
same,160 nM FC (mGrn mRNA),"Table 16, Neuro2A",1.5 FC
CO-3574: ASO targeting the Grn promoter (− strand) (antisense eG*e[5mC]*eT*e[5mC]*eT*e[5mC]*e[5mC]*eT*eA*eA*e[5mC]*eT*eG*eT*eG*eG*eG*eT*eG*e[5mC]),mGRN mRNA FC,Neuro2a,1.3 FC
CO-5301: CO-3544 modified to include PO/PS bonds (antisense lG*lT*eT*l[5mC]*lT*e[5mC]*l[5mC]*e[5mC]*lT*eA*lG*e[5mC]*lT*eG*lT*eG*lT*eA*lG*lT),40 nM FC (mGrn mRNA),"Table 15, Neuro2a",0.9 FC
same,80 nM FC (mGrn mRNA),"Table 15, Neuro2a",1.0 FC
same,160 nM FC (mGrn mRNA),"Table 15, Neuro2a",0.7 FC
CO-3578: ASO targeting the Grn promoter (− strand) (antisense eT*eT*e[5mC]*e[5mC]*eA*eA*e[5mC]*eT*eG*eG*eT*eT*eT*e[5mC]*eG*eA*eG*eT*e[5mC]*e[5mC]),mGRN mRNA FC,Neuro2a,1.0 FC
CO-3590: ASO targeting the Grn promoter (− strand) (antisense eT*eA*eA*eT*eG*e[5mC]*e[5mC]*e[5mC]*eT*eT*eA*eT*e[5mC]*eT*eT*eG*eA*eA*e[5mC]*eG),mGRN mRNA FC,Neuro2a,1.2 FC
CO-5295: CO-3544 modified to include PO/PS bonds (antisense eG*eT*eT*e[5mC]*eT*e[5mC]*e[5mC]*e[5mC]*eT*eA*eG*e[5mC]*eTeGeTeGeT*eA*eG*eT),40 nM FC (mGrn mRNA),"Table 15, Neuro2a",1.1 FC
same,80 nM FC (mGrn mRNA),"Table 15, Neuro2a",1.3 FC
same,160 nM FC (mGrn mRNA),"Table 15, Neuro2a",1.4 FC
CO-5303: CO-3595 modified to include varying PO/PS internucleotide bonds (antisense e[5mC]*e[5mC]*eTeGeAeAe[5mC]eTeGeTeAeTeGeGe[5mC]eTeG*eA*e[5mC]*e[5mC]),40 nM FC (mGrn mRNA),"Table 16, Neuro2A",1.3 FC
same,80 nM FC (mGrn mRNA),"Table 16, Neuro2A",1.6 FC
same,160 nM FC (mGrn mRNA),"Table 16, Neuro2A",1.8 FC
CO-5299: CO-3544 modified to include PO/PS bonds (antisense eG*eT*eTe[5mC]eTe[5mC]e[5mC]e[5mC]eTeA*eG*e[5mC]*eT*eGeT*eG*eT*eA*eG*eT),40 nM FC (mGrn mRNA),"Table 15, Neuro2a",1.2 FC
same,80 nM FC (mGrn mRNA),"Table 15, Neuro2a",1.3 FC
same,160 nM FC (mGrn mRNA),"Table 15, Neuro2a",1.5 FC
CO-3549: ASO targeting the Grn promoter (− strand) (antisense eA*eG*e[5mC]*eT*eA*eA*eT*eT*eT*e[5mC]*e[5mC]*eG*e[5mC]*e[5mC]*eT*e[5mC]*eT*e[5mC]*e[5mC]*e[5mC]),mGRN mRNA FC,Neuro2a,1.4 FC
CO-3597: ASO targeting the Grn promoter (− strand) (antisense eA*e[5mC]*eA*eA*e[5mC]*e[5mC]*e[5mC]*eT*eG*e[5mC]*eA*eT*eG*e[5mC]*eA*e[5mC]*eT*e[5mC]*e[5mC]*eT),mGRN mRNA FC,Neuro2a,1.2 FC
CO-3568: ASO targeting the Grn promoter (− strand) (antisense e[5mC]*e[5mC]*eG*e[5mC]*e[5mC]*eT*e[5mC]*eT*eA*e[5mC]*eG*eT*eA*eG*eA*e[5mC]*eA*eA*eG*eT),mGRN mRNA FC,Neuro2a,1.2 FC
CO-3567: ASO targeting the Grn promoter (− strand) (antisense e[5mC]*e[5mC]*e[5mC]*eT*eG*eG*eA*eT*e[5mC]*eT*e[5mC]*e[5mC]*eG*eA*eG*e[5mC]*eA*eA*eT*eG),mGRN mRNA FC,Neuro2a,1.1 FC
CO-3585: ASO targeting the Grn promoter (− strand) (antisense eG*eT*e[5mC]*e[5mC]*e[5mC]*eA*e[5mC]*e[5mC]*eT*eT*eA*eT*e[5mC]*eA*eG*e[5mC]*e[5mC]*eT*e[5mC]*eT),mGRN mRNA FC,Neuro2a,1.7 FC
CO-3545: ASO targeting the Grn promoter (− strand) (antisense e[5mC]*eT*eA*eG*eT*eG*eG*eA*eA*eG*eA*eT*eG*eT*e[5mC]*eG*eG*eA*eG*e[5mC]),mGRN mRNA FC,Neuro2a,1.7 FC
CO-5308: CO-3595 modified to include varying PO/PS internucleotide bonds (antisense e[5mC]*e[5mC]*eT*eG*eA*eA*e[5mC]*eT*eG*eT*eA*eT*eGeGe[5mC]eTeG*eA*e[5mC]*e[5mC]),40 nM FC (mGrn mRNA),"Table 16, Neuro2A",1.3 FC
same,80 nM FC (mGrn mRNA),"Table 16, Neuro2A",1.4 FC
same,160 nM FC (mGrn mRNA),"Table 16, Neuro2A",2.0 FC
CO-3546: ASO targeting the Grn promoter (− strand) (antisense eG*eA*eA*eA*eT*eT*e[5mC]*eA*eT*eT*eT*e[5mC]*e[5mC]*e[5mC]*e[5mC]*eT*e[5mC]*eG*eA*e[5mC]),mGRN mRNA FC,Neuro2a,1.4 FC
CO-3594: ASO targeting the Grn promoter (− strand) (antisense e[5mC]*eA*eT*eG*eG*eT*e[5mC]*eT*e[5mC]*eT*eA*eT*eT*e[5mC]*eA*e[5mC]*e[5mC]*e[5mC]*eA*e[5mC]),mGRN mRNA FC,Neuro2a,1.6 FC
CO-5290: CO-3544 modified to include PO/PS bonds (antisense eG*eT*eTe[5mC]eTe[5mC]e[5mC]e[5mC]eTeAeGe[5mC]eTeGeTeGeT*eA*eG*eT),40 nM FC (mGrn mRNA),"Table 15, Neuro2a",1.1 FC
same,80 nM FC (mGrn mRNA),"Table 15, Neuro2a",1.0 FC
same,160 nM FC (mGrn mRNA),"Table 15, Neuro2a",1.0 FC
CO-3563: ASO targeting the Grn promoter (− strand) (antisense eG*e[5mC]*eA*eG*eA*e[5mC]*eA*eA*eT*e[5mC]*eT*e[5mC]*e[5mC]*e[5mC]*e[5mC]*eG*eG*e[5mC]*eT*eA),mGRN mRNA FC,Neuro2a,1.5 FC
CO-3600: ASO targeting the Grn promoter (− strand) (antisense eG*eG*eA*eA*e[5mC]*eA*e[5mC]*e[5mC]*eT*eA*eT*eG*e[5mC]*eT*eA*eA*e[5mC]*eA*e[5mC]*e[5mC]),mGRN mRNA FC,Neuro2a,1.5 FC
CO-3566: ASO targeting the Grn promoter (− strand) (antisense eG*e[5mC]*eT*eA*eA*eT*eG*eG*eA*eA*eA*eT*eT*eG*eA*eG*eG*eT*eG*eG),mGRN mRNA FC,Neuro2a,1.1 FC
CO-3580: ASO targeting the Grn promoter (− strand) (antisense eG*e[5mC]*e[5mC]*eA*e[5mC]*eT*e[5mC]*eT*e[5mC]*e[5mC]*e[5mC]*e[5mC]*eA*eT*eT*e[5mC]*eA*eA*eA*e[5mC]),mGRN mRNA FC,Neuro2a,1.2 FC
CO-3589: ASO targeting the Grn promoter (− strand) (antisense eT*eT*eT*e[5mC]*eA*eA*e[5mC]*e[5mC]*e[5mC]*eT*eT*eG*e[5mC]*eT*eA*eG*eA*eG*eG*e[5mC]),mGRN mRNA FC,Neuro2a,1.3 FC
CO-3586: ASO targeting the Grn promoter (− strand) (antisense eA*eA*eT*e[5mC]*eT*eA*eG*eT*eT*eT*e[5mC]*eA*eA*eG*eT*eT*e[5mC]*e[5mC]*eT*e[5mC]),mGRN mRNA FC,Neuro2a,1.4 FC

# Source: patent US20250243488A1, “METHODS OF MODULATING PROGRANULIN EXPRESSION USING ANTISENSE OLIGONUCLEOTIDES TARGETING REGULATORY RNAS” (Camp4 Therapeutics Corporation, priority 2022, published 2025)
